For orientation: inhibition means the percentage by which the read-out fell short of the control. Broadly, the IC50 is the point on the concentration scale where inhibition reaches its midpoint.

The structures appear in SMILES notation.

T1 sequence (P49841 whole entry): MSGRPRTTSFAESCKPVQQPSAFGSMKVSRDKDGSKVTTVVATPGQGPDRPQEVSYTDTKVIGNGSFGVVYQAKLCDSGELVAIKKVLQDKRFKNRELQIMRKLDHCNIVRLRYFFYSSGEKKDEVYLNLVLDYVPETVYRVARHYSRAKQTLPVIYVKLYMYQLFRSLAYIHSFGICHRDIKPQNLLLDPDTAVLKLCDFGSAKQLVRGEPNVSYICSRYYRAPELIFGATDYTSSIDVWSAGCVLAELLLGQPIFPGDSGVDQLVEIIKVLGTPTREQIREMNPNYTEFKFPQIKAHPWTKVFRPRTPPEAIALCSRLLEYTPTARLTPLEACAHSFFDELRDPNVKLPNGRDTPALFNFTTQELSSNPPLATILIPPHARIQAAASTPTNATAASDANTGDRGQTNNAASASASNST

One test has as its target T1, Recombinant human GSK3β (Homo sapiens, UniProt P49841).
T1 construct: His-tag; made in house; host or cells: Sf9 insect cells / baculovirus
Nature of the test: GSK-3β (Glycogen Synthase Kinase) cell free enzyme assay. The format is biochemical. The settings on record: 1 μM; GSK-3β cell free enzyme assay; Examples 42-60; read-out: Percent inhibition at 1 μM. The protocol: Assay Protocol for GSK-3β (Glycogen Synthase Kinase) in a Cell Free Enzyme Assay
Recombinant human GSK3β was expressed in SF9/Baculo virus cells. His-tag protein was purified by affinity chromatography to a Ni-NTA Superflow column. Enzyme activity was assayed as the incorporation of [33P] from the gamma phosphate of [33P]ATP (PerkinElmer) into biotinylated peptide substrate bio-LC-S-R-H-S-S-P-H-Q-pS-E-D-E-E-E-OH (Anaspec). Reactions were carried out in a buffer containing 8 mM MOPS (pH 7.0), 10 mM Magnesium Acetate, 0.2 mM EDTA, 1 mM DTT and 2 uM cold ATP. The 33P-ATP was added for 0.025 uCi/well (120 uL) and the final concentration of substrate was 1.0 uM. Enzyme was preincubated with test agent for 30 minutes at room temperature followed by initiation of the reaction by the addition of substrate mix. Incubations were carried out at RT for 60 min. Reactions were stopped by addition of 0.66 volume of buffer containing: 12.5 mM EDTA, 0.25% Triton-X 100, 125 uM ATP, and 6.2 mg/ml streptavidin coated SPA beads (Amersham) in PBS without Ca or Mg. Radioactivity associated with the beads was quantified by scintillation counting of CPM in a Trilux counter (PerkinElmer).
Examples 42 to 60 were prepared using the analogous procedure described to prepare Example 41, substituting the appropriate starting material (Examples 1 to 35) and coupling with the appropriate acid. The assay protocol used is the percent inhibition at 1 μM for GSK-3β in the cell free enzyme assay described above.
For `CC(=O)N1CCCC(Nc2nc(-c3ccncc3)cc(=O)n2C)CC1` (stereo not drawn) [Example 43, 2-[(1-Acetylazepan-4-yl)amino]-3-methyl-6-pyridin-4-ylpyrimidin-4(3H)-one], the inhibition at 1 µM is 84%.
Regarding `CC(=O)N1[C@@H]2CC[C@H]1CN(c1nc(-c3ccncc3)cc(=O)n1C)C2` [Example 44, 2-[(1R,5S)-3-Acetyl-38-diazabicyclo[3.2.1]oct-8-yl]-3-methyl-6-pyridin-4-ylpyrimidin-4(3H)-one], the inhibition at 1 µM came to 72%.
Take `CC(=O)N1CCC(Nc2nc(-c3ccncc3)cc(=O)n2C)C1` (stereo not drawn) [Example 45, 2-[(1-Acetylpyrrolidin-3-yl)amino]-3-methyl-6-pyridin-4-ylpyrimidin-4(3H)-one]: the inhibition at 1 µM is 39%.
`CC(=O)N1CCCCC(Nc2nc(-c3ccncc3)cc(=O)n2C)C1` (stereo not drawn) [Example 46, 2-[(1-Acetylazepan-3-yl)amino]-3-methyl-6-pyridin-4-ylpyrimidin-4(3H)-one]: the inhibition at 1 µM was 51%.
Still for that read-out and setting: in the case of `CC(=O)N1CCC(Nc2nc(-c3ccncc3)cc(=O)n2C)CC1` [Example 47, 2-[(1-Acetylpiperidin-4-yl)amino]-3-methyl-6-pyridin-4-ylpyrimidin-4(3H)-one] it was 44%; in that of `CC(=O)N1CCCC(Nc2nc(-c3ccncc3)cc(=O)n2C)C1` (stereo not drawn) [Example 48, 2-[(1-Acetylpiperidin-3-yl)amino]-3-methyl-6-pyridin-4-ylpyrimidin-4(3H)-one], 55%.
As to `CC(=O)N1C[C@@H]2[C@H](C1)[C@H]2Nc1nc(-c2ccncc2)cc(=O)n1C` [Example 49, 2-{[(1R,5S,6s)-3-Acetyl-3-azabicyclo[3.1.0]hex-6-yl]amino}-3-methyl-6-pyridin-4-ylpyrimidin-4(3H)-one], the inhibition at 1 µM was 75%.
With `CC(=O)N1C[C@H](F)[C@H](Nc2nc(-c3ccncc3)cc(=O)n2C)C1` [Example 51, 2-{[(3R,4S)-1-Acetyl-4-fluoropyrrolidin-3-yl]amino}-3-methyl-6-pyridin-4-ylpyrimidin-4(3H)-one], the inhibition at 1 µM was 78%.
`CC(=O)N1CCC(N(C)c2nc(-c3ccncc3)cc(=O)n2C)C1` (stereo not drawn) [Example 52, 2-[(1-Acetylpyrrolidin-3-yl)(methyl)amino]-3-methyl-6-pyridin-4-ylpyrimidin-4(3H)-one]: the inhibition at 1 µM amounted to 51%.
Take `CC(=O)N1CCCC(N(C)c2nc(-c3ccncc3)cc(=O)n2C)CC1` (stereo not drawn) [Example 53, 2-[(1-Acetylazepan-4-yl)(methyl)amino]-3-methyl-6-pyridin-4-ylpyrimidin-4(3H)-one]: the inhibition at 1 µM is 79%.
Regarding `CCN(c1nc(-c2ccncc2)cc(=O)n1C)C1CCN(C(C)=O)C1` (stereo not drawn) [Example 54, 2-[(1-Acetylpyrrolidin-3-yl)(ethyl)amino]-3-methyl-6-pyridin-4-ylpyrimidin-4(3H)-one], the inhibition at 1 µM stood at 64%.
Same read-out and setting: in the case of `CC(=O)N1CC[C@@]2(C)C[C@H](N(C)c3nc(-c4ccncc4)cc(=O)n3C)CC[C@@H]12` [Example 55, 2-{[(3a,S5,R7,aR)-1-Acetyl-3a-methyloctahydro-1H-indol-5-yl](methyl)amino}-3-methyl-6-pyridin-4-ylpyrimidin-4(3H)-one] it was 71%; in that of `CCN(c1nc(-c2ccncc2)cc(=O)n1C)C1CCCN(C(C)=O)CC1` (stereo not drawn) [Example 56, 2-[(1-Acetylazepan-4-yl)(ethyl)amino]-3-methyl-6-pyridin-4-ylpyrimidin-4(3H)-one], 85%.
`CCN(c1nc(-c2ccncc2)cc(=O)n1C)C1CCN(C(C)=O)CC1` [Example 57, 2-[(1-Acetylpiperidin-4-yl)(ethyl)amino]-3-methyl-6-pyridin-4-ylpyrimidin-4(3H)-one]: the inhibition at 1 µM was 93%.
Regarding `CC(=O)N1CCC[C@@H]1CNc1nc(-c2ccncc2)cc(=O)n1C` [Example 58, 2-({[(2R)-1-Acetylpyrrolidin-2-yl]methyl}amino)-3-methyl-6-pyridin-4-ylpyrimidin-4(3H)-one], the inhibition at 1 µM turned out to be 64%.
Still for that read-out and setting: in the case of `CC(=O)N1CCC(CNc2nc(-c3ccncc3)cc(=O)n2C)C1` (stereo not drawn) [Example 59, 2-{[(1-Acetylpyrrolidin-3-yl)methyl]amino}-3-methyl-6-pyridin-4-ylpyrimidin-4(3H)-one] it was 37%.
As to `CC(=O)N[C@@H]1CC[C@@H](Nc2nc(-c3ccncc3)cc(=O)n2C)C1` [Example 60, N-{(1R,3R)-3-[(1-Methyl-6-oxo-4-pyridin-4-yl-16-dihydropyrimidin-2-yl)amino]cyclopentyl} acetamide], the inhibition at 1 µM amounted to 77%.

Still in this test, the particulars now being: cell free enzyme assay; Examples 1-35.
For `Cn1c(NCCc2nc(-c3ccccc3)cs2)nc(-c2ccncc2)cc1=O` [Example 29, 3-Methyl-2-{[2-(4-phenyl-1,3-thiazol-2-yl)ethyl]amino}-6-pyridin-4-ylpyrimidin-4(3H)-one], the IC50 is 16 nM.
Same read-out and setting: in the case of `Cn1c(NCCn2c(=O)ccc3ccccc32)nc(-c2ccncc2)cc1=O` [Example 30, 1-{2-[(1-Methyl-6-oxo-4-pyridin-4-yl-1,6-dihydropyrimidin-2-yl)amino]ethyl} quinolin-2(1H)-one] it was 25 nM.
For the compound `CN(c1nc(-c2ccncc2)cc(=O)n1C)[C@@H]1CC[C@H]2N(C(=O)OC(C)(C)C)CC[C@@]2(C)C1` [Example 31, tert-butyl (3aS,5R,7aR)-3a-Methyl-5-[methyl(1-methyl-6-oxo-4-pyridin-4-yl-1,6-dihydropyrimidin-2-yl)amino]octahydro-1H-indole-1-carboxylate], the IC50 stood at 30.1 nM.
Same read-out and setting: in the case of `Cn1c(NC[C@H]2CCCN2C(=O)OC(C)(C)C)nc(-c2ccncc2)cc1=O` [Example 32, tert-butyl (2R)-2-{[(1-Methyl-6-oxo-4-pyridin-4-yl-1,6-dihydropyrimidin-2-yl)amino]methyl} pyrrolidine-1-carboxylate] it was 71 nM; in that of `Cn1c(N[C@@H]2CN(C(=O)OC(C)(C)C)C[C@@H]2F)nc(-c2ccncc2)cc1=O` [Example 33, tert-butyl (3S,4R)-3-Fluoro-4-[(1-methyl-6-oxo-4-pyridin-4-yl-1,6-dihydropyrimidin-2-yl)amino]pyrrolidine-1-carboxylate], 77 nM.
In the case of `Cn1c(NCC2CCN(C(=O)OC(C)(C)C)C2)nc(-c2ccncc2)cc1=O` (stereo not drawn) [Example 34, tert-butyl 3-{[(1-Methyl-6-oxo-4-pyridin-4-yl-1,6-dihydropyrimidin-2-yl)amino]methyl} pyrrolidine-1-carboxylate], the IC50 stood at 113 nM.
Same read-out and setting: in the case of `Cn1c(NCC2CCCCN2C(=O)OC(C)(C)C)nc(-c2ccncc2)cc1=O` (stereo not drawn) [Example 35, tert-butyl 2-{[(1-Methyl-6-oxo-4-pyridin-4-yl-1,6-dihydropyrimidin-2-yl)amino]methyl} piperidine-1-carboxylate] it was 168 nM.

The same test, now with this note: cell free enzyme assay; Examples 62-155.
Turning to `Cn1c(NC2CCN(C(=O)c3ccccc3)C2)nc(-c2ccncc2)cc1=O` (stereo not drawn) [Example 62, 2-[(1-Benzoylpyrrolidin-3-yl)amino]-3-methyl-6-pyridin-4-ylpyrimidin-4(3H)-one], the IC50 came out at 77.5 nM.
Turning to `Cn1c(NC2CCCN(C(=O)c3ccccc3)CC2)nc(-c2ccncc2)cc1=O` (stereo not drawn) [Example 63, 2-[(1-Benzoylazepan-4-yl)amino]-3-methyl-6-pyridin-4-ylpyrimidin-4(3H)-one], the concentration for half-maximal inhibition (IC50) turned out to be 12.4 nM.
As to `Cn1c(NC2CN(C(=O)c3ccccc3)C2)nc(-c2ccncc2)cc1=O` [Example 64, 2-[(1-Benzoylazetidin-3-yl)amino]-3-methyl-6-pyridin-4-ylpyrimidin-4(3H)-one], the IC50 turned out to be 367 nM.
